≈ marks a conversion by molar mass, not a printed value. Calls of active or inactive are those of the source. The calls are words filed in the database; no cut-off is given here.
System: Mycolicibacterium smegmatis
Test: Antimycobacterial activity against DDS sensitive Mycobacterium smegmatis ATCC 607 […]
Type: functional
Conditions: not given

SMILES | MIC [µg/mL]
Nc1ccc(S(=O)(=O)c2ccccc2)cc1 | 1290 (≈ 5520 µM)
CCCCCN(CCCCC)c1ccc(S(=O)(=O)c2ccc(N)cc2)cc1 | > 257
COC(=O)CNc1ccc(S(=O)(=O)c2ccc(N)cc2)cc1 | 32.8 (≈ 102 µM)
Nc1ccc(S(=O)(=O)c2ccc(NO)cc2)cc1 [4-AMINO-4'-HYDROXAMINE-DIPHENYLSULPHONE] | 18.1 (≈ 68.5 µM)
Nc1ccc(S(=O)(=O)c2ccccc2N)cc1 | 44.2 (≈ 178 µM)
CCCCCNc1ccc(S(=O)(=O)c2ccc(N)cc2)cc1 | 377 (≈ 1180 µM)
CCCNc1ccc(S(=O)(=O)c2ccc(N)cc2)cc1 | 34.4 (≈ 118 µM)
CCCCNc1ccc(S(=O)(=O)c2ccc(N)cc2)cc1 | 110 (≈ 361 µM)
Nc1ccc(S(=O)(=O)c2ccc(NCCCO)cc2)cc1 | 19.6 (≈ 64 µM)
Nc1ccc(S(=O)(=O)c2ccc(Cl)cc2)cc1 | 432 (≈ 1610 µM)
Nc1ccc(S(=O)(=O)c2ccc(Br)cc2)cc1 | 319 (≈ 1020 µM)
CCNc1ccc(S(=O)(=O)c2ccc(N)cc2)cc1 | 54.4 (≈ 197 µM)
CCN(CC)c1ccc(S(=O)(=O)c2ccc(N)cc2)cc1 | > 164
Nc1ccc(S(=O)(=O)c2ccc(NCCO)cc2)cc1 | 13.7 (≈ 46.9 µM)
Nc1ccc(S(=O)(=O)c2ccc([N+](=O)[O-])cc2)cc1 | 34.4 (≈ 124 µM)
Nc1cccc(S(=O)(=O)c2cccc(N)c2)c1 | 806 (≈ 3250 µM)
O=S(=O)(c1ccc(O)cc1)c1ccc(O)cc1 | 400 (≈ 1600 µM)
Nc1ccc(S(=O)(=O)c2ccc(NCC(=O)O)cc2)cc1 [ACEDIASULFONE] | 261 (≈ 853 µM)
Nc1ccc(S(=O)(=O)c2ccc(NC=O)cc2)cc1 | 120 (≈ 434 µM)
Nc1ccc(S(=O)(=O)c2ccc(F)cc2)cc1 | 95 (≈ 378 µM)
CNc1ccc(S(=O)(=O)c2ccc(N)cc2)cc1 | 37.3 (≈ 142 µM)
CCCCCCNc1ccc(S(=O)(=O)c2ccc(N)cc2)cc1 | > 360

System: Mycolicibacterium smegmatis
Test: Antimycobacterial activity against DDS resistant Mycobacterium smegmatis ATCC 607 […]
Type: functional
Conditions: not given

SMILES | MIC [µg/mL]
Nc1ccc(S(=O)(=O)c2ccccc2)cc1 | > 2580
COC(=O)CNc1ccc(S(=O)(=O)c2ccc(N)cc2)cc1 | > 800
Nc1ccc(S(=O)(=O)c2ccc(NO)cc2)cc1 [4-AMINO-4'-HYDROXAMINE-DIPHENYLSULPHONE] | 3000 (≈ 11400 µM)
CCCCCNc1ccc(S(=O)(=O)c2ccc(N)cc2)cc1 | > 500
CCCNc1ccc(S(=O)(=O)c2ccc(N)cc2)cc1 | > 1200
CCCCNc1ccc(S(=O)(=O)c2ccc(N)cc2)cc1 | > 650
Nc1ccc(S(=O)(=O)c2ccc(NCCCO)cc2)cc1 | > 2400
Nc1ccc(S(=O)(=O)c2ccc(Cl)cc2)cc1 | > 600
Nc1ccc(S(=O)(=O)c2ccc(NCCO)cc2)cc1 | 2500 (≈ 8550 µM)
Nc1ccc(S(=O)(=O)c2ccc([N+](=O)[O-])cc2)cc1 | > 1200
Nc1ccc(S(=O)(=O)c2ccc(NCC(=O)O)cc2)cc1 [ACEDIASULFONE] | > 2200
Nc1ccc(S(=O)(=O)c2ccc(NC=O)cc2)cc1 | > 400
Nc1ccc(S(=O)(=O)c2ccc(F)cc2)cc1 | > 1800
CCCCCCNc1ccc(S(=O)(=O)c2ccc(N)cc2)cc1 | > 400

System: Mycobacterium tuberculosis
Test: Antimycobacterial activity against Mycobacterium tuberculosis H37Rv by BACTEC radiometric growth assay
Type: functional
Conditions: not given

SMILES | MIC [µg/mL]
CCCCCCCCS(=O)(=O)NC(N)=O | > 25
CC(C)CCCCCCCS(=O)(=O)CC(N)=O | 1.5 (≈ 5.69 µM)
CC[C@@H](CO)NCCN[C@@H](CC)CO [ETHAMBUTOL] | 2 (≈ 9.79 µM)
NC(=O)CS(=O)(=O)CCCCCc1ccccc1 | 12.5 to 25 (≈ 46.4 to 92.8 µM)
CCCCCCCCOCC(N)=O | > 25
CCCCCCCCCCS(=O)(=O)CCC(N)=O | > 25
CCCCCCCC/C=C/S(=O)(=O)CC(N)=O | 12.5 (≈ 47.8 µM)
CCCCCCCCS(=O)(=O)NS(N)(=O)=O | > 25
C.CCCCCCCCC[S+]([O-])CC(N)=O (racemic) | 25
CCCCCCCCS(=O)(=O)NS(C)(=O)=O | > 25
CCCCCCCCCC[S+]([O-])CCC(N)=O (stereo not given) | 6.25 (≈ 23.9 µM)
CCCCCCCCS(=O)(=O)CC(=O)OC | > 25
NC(=O)c1cnccn1 [PYRAZINAMIDE] | 100 (≈ 812 µM)
CCCCCCCCC[S@@+]([O-])CC(N)=O | 25 (≈ 107 µM)
C.CCCCCCCCC[S+]([O-])CC(=O)OC (racemic) | > 25
CC(=O)Nc1ccc(S(=O)(=O)c2ccc(NC(C)=O)cn2)cc1 | 12.5 (≈ 37.5 µM)
C=C/C(C)=C/[C@@]1(C)SC(=O)C(C)=C1O [THIOLACTOMYCIN] | 25 (≈ 119 µM)

SMILES | MIC [µg/mL]
CCCCCCCCC[S@+]([O-])CC(=O)OC | > 25
NC(=O)CS(=O)(=O)CCCCCCc1ccccc1 | > 25
CCCCCCCCCCSCCC(N)=O | 25 (≈ 102 µM)
NC(=O)CS(=O)(=O)CCCCc1ccccc1 | > 25
CCCCCCCCC[S@+]([O-])CC(N)=O | 25 (≈ 107 µM)
CCCCCCCC[S+]([O-])CC(=O)OCc1ccccc1 (stereo not given) | 6.25 (≈ 20.1 µM)
CCCCCCCC[S+]([O-])CC(=O)O (stereo not given) | > 25
CCCCCCCCC[S+]([O-])CC(=O)OC (stereo not given) | 6.25 (≈ 25.2 µM)
CCCCCCCC[S+]([O-])CC(=O)OC (stereo not given) | 12.5 (≈ 53.3 µM)
CCOCCOCCS(=O)(=O)CC(N)=O | > 25
CC(=O)Nc1ccc(S(=O)(=O)c2ccc(NC(C)=O)c(Cl)c2)cc1 | > 25
CCCCCCCCCCS(=O)(=O)C(C)C(N)=O (stereo not given) | > 25
CCCCCC/C=C/S(=O)(=O)CC(N)=O | 12.5 (≈ 53.6 µM)
CCCCCCCCCCP(=O)([O-])CCC(N)=O.[K+] | > 50
CCCCCCCCC[S@@+]([O-])CC(=O)OC | > 25
CC(C)CCCC(C)CCS(=O)(=O)CC(N)=O (stereo not given) | 6.25 (≈ 23.7 µM)
C/C=C/C/C=C/CCC(=O)[C@H]1O[C@H]1C(N)=O [CERULENIN] | 0.5 to 1.5 (≈ 2.24 to 6.72 µM)

System: Mycolicibacterium smegmatis
Test: Antimicrobial activity against Mycobacterium smegmatis ATCC 607
Type: functional
Conditions: not given

SMILES | MIC [µM]
Cl.Cl.OC[C@H]1O[C@@H](n2cnc3c(-c4cccs4)ncnc32)[C@H](O)[C@@H]1O | 0.7
Cl.OC[C@H]1O[C@@H](n2cnc3c(-c4cccs4)ncnc32)[C@H](O)[C@@H]1O | 0.4
O.O.OC[C@H]1O[C@@H](n2cnc3c(-c4cccs4)ncnc32)[C@H](O)[C@@H]1O | 4
O.OC[C@H]1O[C@@H](n2cnc3c(-c4cccs4)ncnc32)[C@H](O)[C@@H]1O | 1.75

Same assay, conditions: Mycolicibacterium smegmatis, ATCC 607; read-out: MIC

SMILES | MIC [µM]
OC[C@H]1O[C@@H](n2cnc3c(-c4ccns4)ncnc32)[C@H](O)[C@@H]1O | 3 (≈ 1.01 µg/mL)
OC[C@H]1O[C@@H](n2nnc3c(-c4cccs4)ncnc32)[C@H](O)[C@@H]1O | 20 (≈ 6.71 µg/mL)

System: Mycobacterium tuberculosis
Test: Antitubercular activity against Mycobacterium tuberculosis H37Rv ATCC 27294 assessed as growth inhibition at 6.25 ug/ml by microplate alamar blue assay relative to control
Type: functional
Conditions: not given

SMILES | inhibition at 6.25 µg/mL [%]
c1coc(-c2[nH]cnc3ncnc2-3)c1 | 6
OC[C@H]1O[C@@H](n2cnc3c(-c4ccco4)ncnc32)[C@H](O)[C@@H]1O | 0
OC[C@H]1O[C@@H](n2cnc3c(-c4cccs4)ncnc32)[C@H](O)[C@@H]1O | 6
CC(=O)OC[C@H]1O[C@@H](n2cnc3c(Cl)ncnc32)[C@H](OC(C)=O)[C@@H]1OC(C)=O | 4

System: Mycobacterium tuberculosis
Test: Antitubercular activity against Mycobacterium tuberculosis infected in mouse assessed as reduction in microbial load at 2 to 3 mg ip, pretreated for 48 to 72 hrs followed by microbial infection and subsequent compound dosing at 48 to 72 hrs post-infection measured 24 to 32 days post-infection relative to control
Type: functional
Set-up: scale not given: the % may be the effect or the level left
Conditions: not given

SMILES | Activity
CC(C)(C)c1cc2c(OCCOCCOCCOCCOCCOCCO)c(c1)Cc1cc(C(C)(C)C)cc(c1OCCOCCOCCOCCOCCOCCO)Cc1cc(C(C)(C)C)cc(c1OCCOCCOCCOCCOCCOCCO)Cc1cc(C(C)(C)C)cc(c1OCCOCCOCCOCCOCCOCCO)Cc1cc(C(C)(C)C)cc(c1OCCOCCOCCOCCOCCOCCO)Cc1cc(C(C)(C)C)cc(c1OCCOCCOCCOCCOCCOCCO)Cc1cc(C(C)(C)C)cc(c1OCCOCCOCCOCCOCCOCCO)Cc1cc(C(C)(C)C)cc(c1OCCOCCOCCOCCOCCOCCO)C2 | 80 - 100%
OCCOCCOCCOCCOCCOCCOc1c2cc(-c3ccccc3)cc1Cc1cc(-c3ccccc3)cc(c1OCCOCCOCCOCCOCCOCCO)Cc1cc(-c3ccccc3)cc(c1OCCOCCOCCOCCOCCOCCO)Cc1cc(-c3ccccc3)cc(c1OCCOCCOCCOCCOCCOCCO)Cc1cc(-c3ccccc3)cc(c1OCCOCCOCCOCCOCCOCCO)Cc1cc(-c3ccccc3)cc(c1OCCOCCOCCOCCOCCOCCO)Cc1cc(-c3ccccc3)cc(c1OCCOCCOCCOCCOCCOCCO)C2 | 20 - 50%
Oc1c2cc(-c3ccccc3)cc1Cc1cc(-c3ccccc3)cc(c1O)Cc1cc(-c3ccccc3)cc(c1O)Cc1cc(-c3ccccc3)cc(c1O)Cc1cc(-c3ccccc3)cc(c1O)Cc1cc(-c3ccccc3)cc(c1O)Cc1cc(-c3ccccc3)cc(c1O)Cc1cc(-c3ccccc3)cc(c1O)C2 | 20 - 50%
CCCCCCCCCCCCOc1c2cc(S(=O)(=O)O)cc1Cc1cc(S(=O)(=O)O)cc(c1OCCCCCCCCCCCC)Cc1cc(S(=O)(=O)O)cc(c1OCCCCCCCCCCCC)Cc1cc(S(=O)(=O)O)cc(c1OCCCCCCCCCCCC)Cc1cc(S(=O)(=O)O)cc(c1OCCCCCCCCCCCC)Cc1cc(S(=O)(=O)O)cc(c1OCCCCCCCCCCCC)Cc1cc(S(=O)(=O)O)cc(c1OCCCCCCCCCCCC)Cc1cc(S(=O)(=O)O)cc(c1O)C2 | 50 - 80%
CC(C)(C)c1cc2c(O)c(c1)Cc1cc(C(C)(C)C)cc(c1OCCOCCOCCOCCOCCOCCOCCOCCOCCOCCOCCOCCO)Cc1cc(C(C)(C)C)cc(c1O)Cc1cc(C(C)(C)C)cc(c1OCCOCCOCCOCCOCCOCCOCCOCCOCCOCCOCCOCCO)Cc1cc(C(C)(C)C)cc(c1O)Cc1cc(C(C)(C)C)cc(c1OCCOCCOCCOCCOCCOCCOCCOCCOCCOCCOCCOCCO)Cc1cc(C(C)(C)C)cc(c1O)Cc1cc(C(C)(C)C)cc(c1OCCOCCOCCOCCOCCOCCOCCOCCOCCOCCOCCOCCO)C2 | 20 - 50%
CC(C)(C)c1cc2c(O)c(c1)Cc1cc(C(C)(C)C)cc(c1O)Cc1cc(C(C)(C)C)cc(c1O)Cc1cc(C(C)(C)C)cc(c1O)Cc1cc(C(C)(C)C)cc(c1O)Cc1cc(C(C)(C)C)cc(c1O)C2 | inactive
CC(C)(C)c1cc2c(O)c(c1)Cc1cc(C(C)(C)C)cc(c1O)Cc1cc(C(C)(C)C)cc(c1O)Cc1cc(C(C)(C)C)cc(c1O)C2 | inactive
CC(C)(C)c1cc2c(OCCOCCOCCOCCOCCOCCO)c(c1)Cc1cc(C(C)(C)C)cc(c1OCCOCCOCCOCCOCCOCCO)Cc1cc(C(C)(C)C)cc(c1OCCOCCOCCOCCOCCOCCO)Cc1cc(C(C)(C)C)cc(c1OCCOCCOCCOCCOCCOCCO)Cc1cc(C(C)(C)C)cc(c1OCCOCCOCCOCCOCCOCCO)Cc1cc(C(C)(C)C)cc(c1OCCOCCOCCOCCOCCOCCO)C2 | 80 - 100%
OCCOCCOCCOCCOCCOCCOCCOCCOCCOCCOCCOCCOc1c2cc(-c3ccccc3)cc1Cc1cc(-c3ccccc3)cc(c1OCCOCCOCCOCCOCCOCCOCCOCCOCCOCCOCCOCCO)Cc1cc(-c3ccccc3)cc(c1OCCOCCOCCOCCOCCOCCOCCOCCOCCOCCOCCOCCO)Cc1cc(-c3ccccc3)cc(c1OCCOCCOCCOCCOCCOCCOCCOCCOCCOCCOCCOCCO)Cc1cc(-c3ccccc3)cc(c1OCCOCCOCCOCCOCCOCCOCCOCCOCCOCCOCCOCCO)Cc1cc(-c3ccccc3)cc(c1OCCOCCOCCOCCOCCOCCOCCOCCOCCOCCOCCOCCO)Cc1cc(-c3ccccc3)cc(c1OCCOCCOCCOCCOCCOCCOCCOCCOCCOCCOCCOCCO)C2 | 80 - 100%
Oc1c2cc(-c3ccccc3)cc1Cc1cc(-c3ccccc3)cc(c1O)Cc1cc(-c3ccccc3)cc(c1O)Cc1cc(-c3ccccc3)cc(c1O)Cc1cc(-c3ccccc3)cc(c1O)Cc1cc(-c3ccccc3)cc(c1O)Cc1cc(-c3ccccc3)cc(c1O)C2 | 20 - 50%

From ChEMBL document CHEMBL4613212, “Insights of synthetic analogues of anti-leprosy agents” (Bioorg Med Chem, 2019)
